Assay results: US20160264655A1, “Treating cancers with drugs targeting CREB3L1” (Board of Regents, The University of Texas System, priority 2013, published 2016)
Like-named read-outs stand apart in the source and are kept apart here. Each block holds one compound with its values, some of them ahead of it.

Key:
[1] = tested on: cell growth; assay: Requirement of CREB3L1 for inhibition of cell growth; assay type: cell-based
Description: We then determined the relationship between doxorubicin-induced cleavage of CREB3L1 and DNA breaks caused by inhibition of topoisomerase. […] However, this effect was unaffected by knockdown of CREB3L1 expression.

[2] = tested on: SV589 cells; assay: Growth inhibition of SV589 cells; assay type: cell-based, human; conditions: two siRNA duplexes
Description: (§1) If proteolytic activation of CREB3L1 is required for doxorubicin to inhibit cell proliferation, then the amount of CREB3L1 expressed in cancer cells may determine their sensitivity to doxorubicin. To test this hypothesis, we analyzed SV589 cells, an immortalized line of human fibroblasts (12), and MCF-7 cells, a line of human breast cancer cells (13). […] In this experiment, cells were treated with doxorubicin for 2 days. To determine the effect of CREB3L1 expression on proliferation of the cells treated with doxorubicin for a longer period of time, we incubated MCF-7 and MCF7/pCREB3L1(H) cells with 15 nM doxorubicin for 6 days.

[3] = tested on: collagen 1a1 and p21; assay: Expression of CREB3L1 target genes in Huh7 cells; assay type: cell-based, human
Description: (§2) Inasmuch as CREB3L1 was required for doxorubicin to induce expression of p21, a well-characterized inhibitor of the cell cycle (11), we determined whether CREB3L1 was also required for the drug to inhibit cell proliferation. […] These concentrations of doxorubicin were not enough to trigger apoptosis of Huh7 cells, which became apparent only when the cells were treated with 5 μM of the compound.

[4] = tested on: CREB3L1; assay: CREB3L1 cleavage, immunoblot of membrane and nuclear fractions of Huh7 cells; assay type: cell-based, human; conditions: for amount of the nuclear form of CREB3L1 (cleavage of CREB3L1): Huh7 cells, compound alone
Description: We fractionated human hepatoma Huh7 cells (6) into membrane and nuclear fractions, and used an antibody reacting against the NH2-terminal domain of CREB3L1 (3) to examine the cleavage of CREB3L1 through immunoblot analysis.

[5] = patients treated with the drug; cited from earlier work
[6] = tested on: histone γH2AX; assay: DNA breaks, histone γH2AX marker; assay type: cell-based
[7] = tested on: MCF7; assay: MCF7 xenograft in athymic nude mice; assay type: in vivo; conditions: MCF7 overexpressing CREB3L1 vs without overexpression
Description: In particular, the relationship between CREB3L1 expression and doxorubicin sensitivity is confirmed in a study of 45 lines of breast cancer cells from ATCC Breast Cancer Cell Panel. […] The relationship between CERB3L1 expression and doxorubicin sensitivity is also confirmed in vivo by injection of MCF7 with or without overexpression of CREB3L1 into athymic nude mice. These mice are then treated with different doses of doxorubicin, confirming that the dose of doxorubicin required to shrink tumors produced from MCF7 cells overexpressing CREB3L1 are lower than those required to shrink tumors generated from those without the overexpression.

[8] = tested on: Huh7 cells; assay: Apoptosis of Huh7 cells; assay type: cell-based, human
Description: as §2

[9] = tested on: ceramide synthesis; assay: Ceramide synthesis, tritium-labeled palmitate incorporation in Huh7 cells; assay type: cell-based, human
Description: RIP of membrane-bound transcription factors is known to be a signal transduction pathway that transfers signals from the ER to nucleus (5). […] Daunorubicin, a chemotherapeutic drug derived from doxorubicin, was reported to induce de novo synthesis of ceramide (15).

[10] = tested on: CREB3L1; assay: CREB3L1 cleavage in wild type and S1P- or S2P-deficient CHO cells; assay type: cell-based, Chinese Hamster
[11] = tested on: human kidney tumor; assay: Xenograft of human kidney tumors in mice; assay type: in vivo
[12] = tested on: Huh7 cells; assay: Proliferation of Huh7 cells; assay type: cell-based, human
Description: as §2

[13] = tested on: MCF-7 cells; assay: Proliferation of MCF-7 cells with or without CREB3L1 overexpression; assay type: cell-based, human; conditions: for IC50: Homo sapiens, MCF7, 48 h, treated 2 days, read-out: IC50 for doxorubicin; for proliferation (cell counting, cellular DNA content): 15 nM for 6 days
Description: as §1

[14] = Huh7 cells with CREB3L1 knockdown

Compound: CC(=O)O[C@H]1C(=O)[C@@]2(C)[C@H]([C@H](OC(=O)c3ccccc3)[C@]3(O)C[C@H](OC(=O)[C@H](O)[C@@H](NC(=O)c4ccccc4)c4ccccc4)C(C)=C1C3(C)C)[C@]1(OC(C)=O)CO[C@@H]1C[C@@H]2O [paclitaxel]
requirement of CREB3L1 to inhibit cell growth [1]: not required

IC50 ([13]; MCF7/pCREB3L1(H), 300-fold CREB3L1 overexpression): ~1 nM
IC50 ([13]; MCF7/pCREB3L1(L), 8-fold CREB3L1 overexpression): 10 nM
Compound: COc1cccc2c1C(=O)c1c(O)c3c(c(O)c1C2=O)C[C@@](O)(C(=O)CO)C[C@@H]3O[C@H]1C[C@H](N)[C@H](O)[C@H](C)O1 [doxorubicin, Doxorubicin]
effect of CREB3L1 siRNA knockdown on sensitivity [2]: more resistant
induction of collagen 1a1 and p21 ([3]; Huh7-shCREB3L1 cells): markedly blunted
expression of collagen 1a1 and p21 ([3]; Huh7-shControl cells): induced the expression of collagen 1a1 and p21
amount of the nuclear form of CREB3L1 (cleavage of CREB3L1) [4]: markedly raised the amount of the nuclear form of CREB3L1
clinically relevant concentration in the serum of patients [5]: < 1 µM
DNA breaks (histone γH2AX) [6]: induced appearance of histone γH2AX
dose required to shrink tumors [7]: lower
concentration at which apoptosis became apparent [8]: 5 µM
tritium-labeled palmitate incorporated into ceramide [9]: increased the amount of tritium-labeled palmitate incorporated into ceramide
cleavage of CREB3L1 to the nuclear form ([10]; mutant CHO cells deficient in either S1P or S2P): failed to produce the nuclear form of CREB3L1
cleavage of CREB3L1 to the nuclear form ([10]; wild type CHO cells): stimulated cleavage of CREB3L1
effect compared with rapamycin ([11]; tumors expressing CREB3L1): better than rapamycin
tumor response ([11]; tumors expressing CREB3L1, dose about 7 times lower than clinical): profoundly inhibited
tumor response ([11]; tumors without CREB3L1 expression, dose about 7 times lower than clinical): did not respond
doxorubicin sensitivity of kidney tumors ([11]; tumors without vs with CREB3L1 by 10H1 staining, day 3 to 21): much less doxorubicin sensitivity
concentration that blocks proliferation ([12]; Huh7-shCREB3L1 cells): > 500 nM
IC50 ([13]; parental MCF-7 cells): 500 nM
proliferation (cell counting, cellular DNA content) ([13]; MCF7/pCREB3L1(H) cells): markedly blocked proliferation
proliferation (cell counting, cellular DNA content) ([13]; MCF-7 cells): did not affect proliferation

Compound: bleomycin
requirement of CREB3L1 to inhibit cell growth [1]: not required

Compound: CCCCCCCCCCCCC/C=C/[C@@H](O)[C@H](CO)NC(=O)CCCCC [C6-ceramide]
amount of the nuclear form of CREB3L1 (cleavage of CREB3L1) [4]: stimulated CREB3L1 cleavage
inhibition of cell proliferation after CREB3L1 knockdown [12, 14]: completely abolished the ability of C6-ceramide to inhibit cell proliferation

Compound: CCCCCCC(=O)CCCCCC/C=C/C[C@@H](O)[C@H](O)[C@@](N)(CO)C(=O)O [Myriocin]
inhibition of doxorubicin-induced cleavage of CREB3L1 ([4]; co-treatment with doxorubicin): inhibited doxorubicin-induced cleavage of CREB3L1 in a dose-dependent manner
effect of co-treatment on cell sensitivity to doxorubicin ([12]; co-treatment with doxorubicin): rendered the cells more resistant to doxorubicin

Compound: COc1cc([C@@H]2c3cc4c(cc3[C@@H](O[C@@H]3O[C@@H]5CO[C@@H](C)O[C@H]5[C@H](O)[C@H]3O)[C@H]3COC(=O)[C@H]23)OCO4)cc(OC)c1O [etoposide]
amount of the nuclear form of CREB3L1 (cleavage of CREB3L1) [4]: failed to induce cleavage of CREB3L1
effect of CREB3L1 knockdown on resistance [12, 14]: did not increase their resistance
effect of CREB3L1 overexpression on sensitivity ([13]; MCF7 cells overexpressing CREB3L1): did not increase their sensitivity
